The values that follow are results of earlier work, collected in US11085047B2, “Synthetic cannabinoid compounds for treatment of substance addiction and other disorders” (MyMD Pharmaceuticals (Florida), Inc., priority 2018, dated 2021).

For series [1] the following is noted: several clinical studies.
For series [2] the following is noted: 2.5 to 5 mg; three patients.

The structures appear in SMILES notation.

As to `CCCCCc1cc(O)c2c(c1)OC(C)(C)[C@@H]1CCC(C)=C[C@@H]21` [THC, tetrahydrocannabinol], the “mood in reactive depression” value in series [1] is recorded as “improvement of mood”. Besides, in series [2], the “effect on pruritus due to liver diseases” value was “effective”. Moreover, the bronchoconstriction after inhalation entry (inhalation of THC) is “Very few patients developed bronchoconstriction”. Where the note is “oral THC (15 mg), acute studies”, the anti-asthmatic effect entry is “approximately correspond to those obtained with therapeutic doses of common bronchodilator drugs”.
